Measurements reported in patent publication US7612056B2, “Substituted diaza-spiro-[4.5]-decane derivatives and their use as neurokinin antagonists” (Jenssen Pharmaceutica N.V., priority 2005, dated 2009).

Legend:
[1] = molecular target: NK1 (Homo sapiens, UniProt P25103); assay: Signal transduction (ST), intracellular Ca++ (FLIPR), NK1; assay type: cell-based; conditions: antagonist, Ca++ transient peak, read-out: pIC50 NK1 (converted)
Experimental: This test evaluates in vitro functional NK1 antagonistic activity. For the measurements of intracellular Ca^++ concentrations the cells were grown on 96-well (black wall/transparent bottom) plates from Costar for 2 days until they reached confluence. The cells were loaded with 2 μM Fluo3 in DMEM containing 0.1% BSA and 2.5 mM probenecid for 1 h at 37° C. They were washed 3× with a Krebs buffer (140 mM NaCl, 1 mM MgCl2×6H2O, 5 mM KCl, 10 mM glucose, 5 mM HEPES; 1.25 mM CaCl2; pH 7.4) containing 2.5 mM probenecid and 0.1% BSA (Ca^++-buffer). The cells were preincubated with a concentration range of antagonists for 20 min at RT and Ca^++-signals after addition of the agonists were measured in a Fluorescence Image Plate Reader (FLIPR from Molecular Devices, Crawley, England). The peak of the Ca^++-transient was considered as the relevant signal and the mean values of corresponding wells were analysed as described below.
The sigmoidal dose response curves were analysed by computerised curve-fitting, using the GraphPad Program. The EC50-value of a compound is the effective dose showing 50% of maximal effect. For mean curves the response to the agonist with the highest potency was normalised to 100%. For antagonist responses the IC50-value was calculated using non-linear regression. […]

[2] = molecular target: T1, NK2 (Homo sapiens, UniProt P21452); assay: Signal transduction (ST), intracellular Ca++ (FLIPR), NK2; assay type: cell-based; conditions: antagonist, Ca++ transient peak, read-out: pIC50 NK2 (converted)
T1 sequence (P21452 1-398): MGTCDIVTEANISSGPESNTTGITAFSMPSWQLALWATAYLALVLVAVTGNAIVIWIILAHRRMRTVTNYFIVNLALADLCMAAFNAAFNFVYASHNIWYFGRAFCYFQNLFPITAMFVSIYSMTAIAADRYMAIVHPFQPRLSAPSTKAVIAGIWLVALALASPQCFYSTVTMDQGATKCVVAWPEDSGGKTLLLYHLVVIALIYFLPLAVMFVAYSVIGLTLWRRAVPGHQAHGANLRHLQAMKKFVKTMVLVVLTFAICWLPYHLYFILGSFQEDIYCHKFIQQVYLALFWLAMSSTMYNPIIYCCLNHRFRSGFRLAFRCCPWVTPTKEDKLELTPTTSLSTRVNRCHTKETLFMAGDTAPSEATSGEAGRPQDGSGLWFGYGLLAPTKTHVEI

[3] = molecular target: T2, NK3 (Homo sapiens, UniProt P29371); assay: Signal transduction (ST), intracellular Ca++ (FLIPR), NK3; assay type: cell-based; conditions: antagonist, Ca++ transient peak, read-out: pIC50 NK3 (converted)
T2 sequence (P29371 1-465): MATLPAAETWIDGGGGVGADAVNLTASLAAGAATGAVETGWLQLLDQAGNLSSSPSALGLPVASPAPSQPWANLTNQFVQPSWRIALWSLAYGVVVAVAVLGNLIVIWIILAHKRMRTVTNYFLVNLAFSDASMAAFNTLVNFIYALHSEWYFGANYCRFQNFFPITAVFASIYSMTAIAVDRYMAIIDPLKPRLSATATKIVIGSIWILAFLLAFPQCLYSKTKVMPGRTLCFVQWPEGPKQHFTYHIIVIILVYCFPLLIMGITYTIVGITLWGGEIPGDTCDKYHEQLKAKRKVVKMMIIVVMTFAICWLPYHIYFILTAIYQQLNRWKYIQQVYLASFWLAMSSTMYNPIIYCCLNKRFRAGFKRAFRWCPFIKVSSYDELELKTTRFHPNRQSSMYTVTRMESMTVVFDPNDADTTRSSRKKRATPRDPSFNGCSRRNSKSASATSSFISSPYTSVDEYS

NK1, sequence (P25103 whole entry): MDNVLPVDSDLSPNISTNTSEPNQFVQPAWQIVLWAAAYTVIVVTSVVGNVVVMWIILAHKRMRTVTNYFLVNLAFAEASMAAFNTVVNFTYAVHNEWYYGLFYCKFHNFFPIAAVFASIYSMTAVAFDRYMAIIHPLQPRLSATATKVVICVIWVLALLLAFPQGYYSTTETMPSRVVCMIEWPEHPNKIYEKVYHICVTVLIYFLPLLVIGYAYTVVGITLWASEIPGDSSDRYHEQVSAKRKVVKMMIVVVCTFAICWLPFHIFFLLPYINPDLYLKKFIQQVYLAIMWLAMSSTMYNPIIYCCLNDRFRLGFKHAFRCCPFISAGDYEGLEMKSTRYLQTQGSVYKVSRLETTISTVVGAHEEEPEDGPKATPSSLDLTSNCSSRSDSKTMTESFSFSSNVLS

| SMILES | IC50 [1] [µM] | IC50 [2] [µM] | IC50 [3] [µM] | melting point [°C] |
| --- | --- | --- | --- | --- |
| O=C1CC2(CCN([C@H]3CCN(C(=O)c4cc(C(F)(F)F)cc(C(F)(F)F)c4)[C@H](Cc4ccccc4)C3)CC2)CN1CC1CC1 [Compound 23] | 0.0692 | 4.37 | > 10 |  |
| O=C1CC2(CCN([C@@H]3CCN(C(=O)c4cc(C(F)(F)F)cc(C(F)(F)F)c4)[C@H](Cc4ccccc4)C3)CC2)CN1Cc1ccccc1F [Compound 33] | 0.191 | 9.55 | 9.12 |  |
| O=C(c1ccccc1Cl)N1CCC2(CCN([C@H]3CCN(C(=O)c4cc(C(F)(F)F)cc(C(F)(F)F)c4)[C@H](Cc4ccccc4)C3)CC2)C1 [Compound 13] | 0.0759 | 5.13 | 4.27 |  |
| O=C(c1cc(C(F)(F)F)cc(C(F)(F)F)c1)N1CC[C@H](N2CCCC3(CCCN3C(=O)C3CC3)C2)C[C@H]1Cc1ccccc1 (stereo partly drawn) [Compound 46] | 0.204 | 2.04 |  |  |
| O=C1CC2(CCN([C@H]3CCN(C(=O)c4cc(C(F)(F)F)cc(C(F)(F)F)c4)[C@H](Cc4ccccc4)C3)CC2)CN1Cc1ccccc1Cl [Compound 34] | 0.0692 | 4.47 | > 10 |  |
| O=C(C1CC1)N1CC2(CCN([C@H]3CCN(C(=O)c4cc(C(F)(F)F)cc(C(F)(F)F)c4)[C@H](Cc4ccccc4)C3)CC2)c2ccccc21 [Compound 37] | 0.302 | > 10 | 6.76 |  |
| O=C1CC2(CCN([C@H]3CCN(C(=O)c4cc(C(F)(F)F)cc(C(F)(F)F)c4)[C@H](Cc4ccccc4)C3)CC2)CN1Cc1ccoc1 [Compound 26] | 0.0537 | 3.98 | > 10 |  |
| O=C1CC2(CCN([C@H]3CCN(C(=O)c4cc(C(F)(F)F)cc(C(F)(F)F)c4)[C@H](Cc4ccccc4)C3)CC2)CN1 [Compound 21] | 0.347 | > 10 | > 10 | 152 |
| O=C1CC2(CCN(C3CCN(C(=O)c4cc(C(F)(F)F)cc(C(F)(F)F)c4)C(Cc4ccccc4)C3)CC2)CN1CC1CCCO1 (stereo not drawn) [Compound 25] | 0.0316 | 5.5 | 6.92 |  |
| O=C(c1ccoc1)N1CCC2(CCN([C@H]3CCN(C(=O)c4cc(C(F)(F)F)cc(C(F)(F)F)c4)[C@H](Cc4ccccc4)C3)CC2)C1 [Compound 8] | 0.117 | > 10 | 0.977 |  |
| O=C1CC2(CCN([C@@H]3CCN(C(=O)c4cc(C(F)(F)F)cc(C(F)(F)F)c4)[C@H](Cc4ccccc4)C3)CC2)CN1Cc1ccsc1 [Compound 30] | 0.302 | 0.813 | > 10 |  |
| O=C1CC2(CCN([C@@H]3CCN(C(=O)c4cc(C(F)(F)F)cc(C(F)(F)F)c4)[C@H](Cc4ccccc4)C3)CC2)CN1Cc1ccccc1 [Compound 31] | 0.0724 | 2.24 | 11 |  |
| CS(=O)(=O)N1CC2(CCN([C@H]3CCN(C(=O)c4cc(C(F)(F)F)cc(C(F)(F)F)c4)[C@H](Cc4ccccc4)C3)CC2)c2ccccc21 [Compound 39] | 0.135 | > 10 | > 10 |  |
| Cc1ccccc1CN1CC2(CCN([C@@H]3CCN(C(=O)c4cc(C(F)(F)F)cc(C(F)(F)F)c4)[C@H](Cc4ccccc4)C3)CC2)CC1=O [Compound 32] | 0.269 | 10.5 | 8.32 |  |
| Cc1ccccc1CN1CC2(CCN([C@H]3CCN(C(=O)c4cc(C(F)(F)F)cc(C(F)(F)F)c4)[C@H](Cc4ccccc4)C3)CC2)CC1=O [Compound 28] | 0.145 | 7.59 | 10.2 |  |
| O=C(C1CCOC1)N1CCC2(CCN([C@@H]3CCN(C(=O)c4cc(C(F)(F)F)cc(C(F)(F)F)c4)[C@H](Cc4ccccc4)C3)CC2)C1 (stereo partly drawn) [Compound 11] | 0.282 | > 10 | 6.92 |  |
| O=C(c1cc(C(F)(F)F)cc(C(F)(F)F)c1)N1CCC(N2CCC3(CC2)CCN(S(=O)(=O)c2cccs2)C3)CC1Cc1ccccc1 (stereo not drawn) [Compound 9] | 0.234 | 9.55 | > 10 |  |
| O=C(C1CC1)N1CCC2(CC1)CCN(C1CCN(C(=O)c3cc(C(F)(F)F)cc(C(F)(F)F)c3)C(Cc3ccccc3)C1)C2 (stereo not drawn) [Compound 6] | 0.0537 |  | > 10 | 160 |
| O=C1CC2(CCN([C@@H]3CCN(C(=O)c4cc(C(F)(F)F)cc(C(F)(F)F)c4)[C@H](Cc4ccccc4)C3)CC2)CN1Cc1ccccc1Cl [Compound 35] | 0.182 | 9.12 | 9.55 |  |
| O=C(c1ccoc1)N1CCC2(CCN(C3CCN(C(=O)c4cc(C(F)(F)F)cc(C(F)(F)F)c4)C(Cc4ccccc4)C3)CC2)C1 (stereo not drawn) [Compound 7] | 0.178 | 7.59 | 3.31 |  |
| O=C(c1cc(C(F)(F)F)cc(C(F)(F)F)c1)N1CC[C@H](N2CCCC3(CCCN3C(=O)c3ccoc3)C2)C[C@H]1Cc1ccccc1 (stereo partly drawn) [Compound 48] | 0.234 | 3.63 | > 10 |  |
| O=C1CC2(CCN([C@H]3CCN(C(=O)c4cc(C(F)(F)F)cc(C(F)(F)F)c4)[C@H](Cc4ccccc4)C3)CC2)CN1Cc1ccsc1 [Compound 29] | 0.102 | 5.25 | > 10 |  |
| O=C1CC2(CCN([C@@H]3CCN(C(=O)c4cc(C(F)(F)F)cc(C(F)(F)F)c4)[C@H](Cc4ccccc4)C3)CC2)CN1Cc1ccoc1 [Compound 27] | 0.117 | 1.91 | 8.13 |  |
| O=C1CC2(CCN([C@@H]3CCN(C(=O)c4cc(C(F)(F)F)cc(C(F)(F)F)c4)[C@H](Cc4ccccc4)C3)CC2)CN1CC1CC1 [Compound 24] | 0.126 | 2.04 | 5.25 |  |
